Laboratory results reported in US5629469A, “Thiol protease inhibitor” (Sandoz Ltd., priority 1995, dated 1997).

What was measured:
[1] = test system: proteolytic activity in the midgut extracts; settings: three species of beetles; cited from earlier work
wCRW larvae = test: Artificial diet bioassay, neonate wCRW larvae; type: in vivo; settings: Diabrotica virgifera, 144 h; diet supplemented with 0.01%; mortality at day 6; read-out: % wCRW mortality ± SE
Procedure: Neonate wCRW larvae are allowed to feed on BioServe, a standard artificial diet used for southern corn rootworm. The diet is supplemented with the treatments indicated below in Table 3. Two or 3 larvae are placed in treatment wells with 9 replicate wells used per treatment. The larvae are allowed to feed on the diet and mortality is evaluated at day 6.

Q: For `CC(C)C[C@H](NC(=O)[C@H]1O[C@@H]1C(=O)O)C(=O)NCCCCN=C(N)N` [E64, [N-(L-3 transcarrboxyoxiran-2-carbonyl)-L-leucyl]-amido(4-guanido)-butane], which “inhibition of proteolytic activity in midgut extracts” value [1] is on record?
A: The value was “much or most of the proteolytic activity in the midgut extracts was inhibited”.

Q: And the mortality at 0.01 % (wCRW larvae)?
A: The mortality at 0.01 % was 80 ± 8%.
